ChEMBL document CHEMBL5143628, “Enteroviral replication inhibition by N-Alkyl triazolopyrimidinone derivatives through a non-capsid binding mode” (Bioorg Med Chem Lett, 2022)
Activity calls are given as the source filed them. No cut-off for these calls is given here.

Legend:
[1] = tested on: rhinovirus B14; experiment: Antiviral activity against Human rhinovirus B14 infected in human H1-HeLa cells assessed as reduction in virus induced cytopathic effect incubated for 3 days by MTT assay; format: functional, organism-based
[2] = tested on: rhinovirus A21; experiment: Antiviral activity against Human rhinovirus A21 infected in human H1-HeLa cells assessed as reduction in virus induced cytopathic effect incubated for 3 days by MTT assay; format: functional, organism-based
[3] = Antiviral activity against Human rhinovirus A71 infected in human H1-HeLa cells assessed as reduction in virus induced cytopathic effect incubated for 3 days by MTT assay; format: functional, cell-based
[4] = (§1) Cytotoxicity against human H1-HeLa cells assessed as reduction in cell viability by MTT assay; format: toxicity, cell-based; conditions: H1-HeLa cells
[5] = Selectivity index, ratio of CC50 for cytotoxicity against human H1-HeLa cells to EC50 for antiviral activity against Human rhinovirus B14 infected in human H1-HeLa cells; format: toxicity, cell-based; conditions: for selectivity ratio: H1-HeLa cells, read-out: Ratio CC50/EC50
[6] = Selectivity index, ratio of CC50 for cytotoxicity against human H1-HeLa cells to EC50 for antiviral activity against Human rhinovirus A21 infected in human H1-HeLa cells; format: toxicity, cell-based; conditions: for selectivity ratio: H1-HeLa cells, read-out: Ratio CC50/EC50
[7] = Selectivity index, ratio of CC50 for cytotoxicity against human H1-HeLa cells to EC50 for antiviral activity against Human rhinovirus A71 infected in human H1-HeLa cells; format: toxicity, cell-based; conditions: for selectivity ratio: H1-HeLa cells, read-out: Ratio CC50/EC50
[8] = tested on: rhinovirus A1B; experiment: Antiviral activity against Rhinovirus A1B infected in human H1-HeLa cells assessed as reduction in virus induced cytopathic effect incubated for 3 days by MTT assay; format: functional, organism-based; conditions: Rhinovirus A, 72 h
[9] = tested on: rhinovirus A2; experiment: Antiviral activity against Human rhinovirus 2 infected in human H1-HeLa cells assessed as reduction in virus induced cytopathic effect incubated for 3 days by MTT assay; format: functional, organism-based; conditions: Rhinovirus A, 72 h
[10] = tested on: rhinovirus A16; experiment: Antiviral activity against Human rhinovirus 16 infected in human H1-HeLa cells assessed as reduction in virus induced cytopathic effect incubated for 3 days by MTT assay; format: functional, organism-based; conditions: Rhinovirus A, 72 h
[11] = tested on: Rhinovirus A; experiment: Antiviral activity against Rhinovirus A33 infected in human H1-HeLa cells assessed as reduction in virus induced cytopathic effect incubated for 3 days by MTT assay; format: functional, cell-based; conditions: Rhinovirus A, 33, H1-HeLa, 72 h
[12] = tested on: rhinovirus B86; experiment: Antiviral activity against Human rhinovirus 86 infected in human H1-HeLa cells assessed as reduction in virus induced cytopathic effect incubated for 3 days by MTT assay; format: functional, organism-based; conditions: Rhinovirus B, 72 h
[13] = tested on: Rhinovirus B; experiment: Antiviral activity against Rhinovirus B91 infected in human H1-HeLa cells assessed as reduction in virus induced cytopathic effect incubated for 3 days by MTT assay; format: functional, organism-based; conditions: Rhinovirus B, 91, H1-HeLa, 72 h
[14] = tested on: rhinovirus B14; experiment: Antiviral activity against Human rhinovirus B14 infected in human H1-HeLa cells assessed as reduction in viral replication by measuring viral production measured 3 days post infection by crystal violet staining based plaque reduction assay; format: functional, organism-based; conditions: dose 0.4-30 µM, time 3.0 day, DDE = dose-dependent effect
[15] = tested on: rhinovirus B14; experiment: Antiviral activity against Human rhinovirus B14 infected in human H1-HeLa cells assessed as reduction in viral titre at 1 uM pretreated for 1 hr followed by viral infection and measured immediately by time-of-addition assay; format: functional, organism-based
[16] = target: CYP2C19 (Homo sapiens, UniProt P33261); experiment: Inhibition of human CYP2C19 at 10 uM incubated for 20 mins in presence of NADPH regenerating system by luminescence assay relative to control; format: ADME
CYP2C19, sequence (P33261 whole entry): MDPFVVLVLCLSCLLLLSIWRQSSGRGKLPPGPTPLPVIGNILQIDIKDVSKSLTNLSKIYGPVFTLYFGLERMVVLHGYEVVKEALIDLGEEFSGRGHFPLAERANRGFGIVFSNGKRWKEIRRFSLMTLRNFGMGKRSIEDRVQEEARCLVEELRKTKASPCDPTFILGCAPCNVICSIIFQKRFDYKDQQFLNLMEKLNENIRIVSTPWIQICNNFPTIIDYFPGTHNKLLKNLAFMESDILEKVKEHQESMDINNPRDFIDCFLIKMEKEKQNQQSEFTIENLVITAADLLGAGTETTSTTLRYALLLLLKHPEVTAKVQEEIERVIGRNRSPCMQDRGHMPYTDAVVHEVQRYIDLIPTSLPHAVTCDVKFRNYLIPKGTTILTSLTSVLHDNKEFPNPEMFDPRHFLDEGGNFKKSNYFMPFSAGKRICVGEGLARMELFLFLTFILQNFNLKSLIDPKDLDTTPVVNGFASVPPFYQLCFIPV

[17] = tested on: Coxsackievirus B1; experiment: Antiviral activity against Human coxsackievirus B1 infected in human H1-HeLa cells assessed as reduction in virus induced cytopathic effect incubated for 2 days by MTT assay; format: functional, organism-based; conditions: Enterovirus B, 48 h
[18] = tested on: Poliovirus 3; experiment: Antiviral activity against Human poliovirus 3 infected in human H1-HeLa cells assessed as reduction in virus induced cytopathic effect incubated for 2 days by MTT assay; format: functional, organism-based; conditions: Enterovirus C, 48 h
[19] = tested on: H1-HeLa; experiment: as §1; format: toxicity, cell-based; conditions: h1-hela
[20] = target: CYP2C9 (Homo sapiens, UniProt P11712); experiment: Inhibition of human CYP2C9 at 10 uM incubated for 20 mins in presence of NADPH regenerating system by luminescence assay relative to control; format: ADME
CYP2C9, sequence (P11712 whole entry): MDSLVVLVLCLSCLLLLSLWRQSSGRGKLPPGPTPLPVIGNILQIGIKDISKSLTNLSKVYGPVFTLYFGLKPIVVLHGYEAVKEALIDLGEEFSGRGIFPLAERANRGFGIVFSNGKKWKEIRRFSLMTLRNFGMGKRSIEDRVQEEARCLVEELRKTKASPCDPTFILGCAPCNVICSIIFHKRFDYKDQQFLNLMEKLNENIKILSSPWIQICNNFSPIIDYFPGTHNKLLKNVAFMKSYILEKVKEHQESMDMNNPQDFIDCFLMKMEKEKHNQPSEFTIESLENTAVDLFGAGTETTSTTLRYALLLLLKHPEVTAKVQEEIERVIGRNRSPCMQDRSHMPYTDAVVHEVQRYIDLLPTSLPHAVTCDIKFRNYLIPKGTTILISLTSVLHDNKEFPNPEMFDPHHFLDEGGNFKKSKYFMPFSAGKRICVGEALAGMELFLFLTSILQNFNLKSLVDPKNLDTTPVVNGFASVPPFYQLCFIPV

Cc1cc(CCCOc2c(C)cc(-c3noc(C(F)(F)F)n3)cc2C)on1 [PLECONARIL]
EC50 ([1]; Rhinovirus B, H1-HeLa, 72 h): 0.2 µM
EC50 ([2]; Rhinovirus A, H1-HeLa, 72 h): 0.17 µM
EC50 ([3]; Rhinovirus A, H1-HeLa, 72 h): 0.017 µM
CC50 [4]: 20.8 µM
selectivity ratio [5]: 145
selectivity ratio [6]: 161
selectivity ratio [7]: 1700
EC50 [8]: 0.24 µM
EC50 [9]: 0.08 µM
EC50 [10]: 0.51 µM
EC50 [11]: 0.45 µM
EC50 [12]: 0.29 µM
EC50 [13]: 1.4 µM
Activity [14]: Dde
Activity [15]: Active

CC(C)Cn1c(=O)c2c3c(sc2n2cnnc12)CC(C(C)(C)C)CC3 (stereo not drawn)
EC50 ([1]; Rhinovirus B, H1-HeLa, 72 h): 4.2 µM
EC50 ([2]; Rhinovirus A, H1-HeLa, 72 h): 5.1 µM
EC50 ([3]; Rhinovirus A, H1-HeLa, 72 h): 2.2 µM
CC50 [4]: > 100 µM
selectivity ratio [5]: > 23.8
selectivity ratio [6]: > 19.6
selectivity ratio [7]: > 45.4

CN(C)CCC=C1c2ccccc2CCc2ccccc21 [AMITRIPTYLINE]
inhibition at 20 min, 10 µM [16]: 90.2%

Cn1c(=O)c2c3c(sc2n2cnnc12)CC(C(C)(C)C)CC3 (stereo not drawn)
EC50 ([1]; Rhinovirus B, H1-HeLa, 72 h): > 100 µM
EC50 ([2]; Rhinovirus A, H1-HeLa, 72 h): > 100 µM
EC50 ([3]; Rhinovirus A, H1-HeLa, 72 h): 23 µM
CC50 [4]: > 100 µM
selectivity ratio [7]: > 4.3
EC50 [17]: > 100 µM
EC50 [18]: > 100 µM

CC(C)(C)C1CCc2c(sc3c2c(=O)n(C2CCCC2)c2nncn32)C1 (stereo not drawn)
EC50 ([1]; Rhinovirus B, H1-HeLa, 72 h): > 100 µM
EC50 ([2]; Rhinovirus A, H1-HeLa, 72 h): > 100 µM
EC50 ([3]; Rhinovirus A, H1-HeLa, 72 h): 12.1 µM
CC50 [4]: > 100 µM
selectivity ratio [7]: > 8.2

CCCn1c(=O)c2c3c(sc2n2cnnc12)CC(C(C)(C)C)CC3 (stereo in doubt; 2c-1)
EC50 ([1]; h1-hela): 3.7 µM
EC50 ([2]; h1-hela): 3.5 µM
EC50 ([3]; h1-hela): 1.7 µM
CC50 [19]: > 100 µM
Ratio CC50/EC50 [5]: > 27
Ratio CC50/EC50 [6]: > 28.5
Ratio CC50/EC50 [7]: > 58.8

Nc1ccc(S(=O)(=O)Nc2ccnn2-c2ccccc2)cc1 [SULFAPHENAZOLE]
inhibition at 20 min, 10 µM [20]: 85.8%

CCn1c(=O)c2c3c(sc2n2cnnc12)CC(C(C)(C)C)CC3 (stereo not drawn)
EC50 ([1]; Rhinovirus B, H1-HeLa, 72 h): 14.1 µM
EC50 ([2]; Rhinovirus A, H1-HeLa, 72 h): 14.7 µM
EC50 ([3]; Rhinovirus A, H1-HeLa, 72 h): 3.7 µM
CC50 [4]: > 100 µM
selectivity ratio [5]: > 7
selectivity ratio [6]: > 6.8
selectivity ratio [7]: > 27
EC50 [17]: > 100 µM
EC50 [18]: 3.8 µM

CCCn1c(=O)c2c3c(sc2n2cnnc12)CC(C(C)(C)C)CC3 (stereo in doubt; 2c-2)
EC50 ([1]; h1-hela): 7.8 µM
EC50 ([2]; h1-hela): 7.7 µM
EC50 ([3]; h1-hela): 1.9 µM
Ratio CC50/EC50 [5]: > 12.8
Ratio CC50/EC50 [6]: > 12.9
Ratio CC50/EC50 [7]: > 52.6
